Measurements published in US9969687B2, “Compounds useful as CCR9 modulators” (Norgine B.V., priority 2013, dated 2018).

Biological target: CCR9 (Homo sapiens (Human), UniProt P51686)
Assay: FLIPR calcium flux assay using MOLT4 cells, TECK stimulation
Assay type: cell-based
Details: MOLT4 cells (human T-cell line)
Method: Biological Activity: FLIPR Assay Using MOLT4 Cells
A calcium flux assay was used to determine the ability of the compounds to interfere with the binding between CCR9 and its chemokine ligand (TECK) in MOLT4 cells (a human T-cell line). MOLT4 cells were seeded (100,000 cells/well) in corning cell culture plates (Cat #3603) in assay buffer (1×HBSS, 20 mM HEPES) containing 2.5 mM Probenecid. The plate was centrifuged at 1200 rpm for 3 minutes and incubated at 37° C./5% CO2 for 2 hours. A 0.3× Fluo-4 NW calcium dye was prepared in assay buffer containing 5 mM Probenecid and stored in the dark. Each well was loaded with 25 μl of 0.3× Fluo-4 NW calcium dye and incubated at 37° C./5% CO2 for 60 minutes and then at room temperature for 30 minutes. A half-log serially diluted concentration response curve was prepared at a 4× concentration for each (10 μM-0.1 nM final assay concentration) and 25 μL of the compound then transferred to the cells (100 μL final volume) for 60 minutes prior to stimulation (30 minutes at 37° C./5% CO2 and 30 minutes at room temperature). […] The increased in intracellular calcium levels was measured with the FLIPR instrument. The potency of the compound as CCR9 antagonist was calculated as an IC50 using GraphPad Prism software (variable slope four parameter). The Ki of the compound was determined from the IC50 values using the following equation. IC50/1+(Agonist (TECK) conc. used in assay/EC50 of agonist (TECK) generated on day of experiment) Ki calculation: […]

Sequence of CCR9 (P51686 whole entry): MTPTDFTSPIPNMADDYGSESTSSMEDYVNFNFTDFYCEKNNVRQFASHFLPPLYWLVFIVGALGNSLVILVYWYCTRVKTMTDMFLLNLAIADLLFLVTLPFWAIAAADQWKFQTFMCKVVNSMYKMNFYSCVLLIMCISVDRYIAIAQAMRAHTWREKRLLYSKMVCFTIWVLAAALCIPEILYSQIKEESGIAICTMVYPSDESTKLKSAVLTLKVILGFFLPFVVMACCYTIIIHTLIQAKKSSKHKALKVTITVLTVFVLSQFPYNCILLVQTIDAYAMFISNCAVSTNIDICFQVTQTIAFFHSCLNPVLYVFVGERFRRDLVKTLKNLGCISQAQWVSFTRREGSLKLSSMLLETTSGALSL

Row | Structure (SMILES) | Ki
1 | O=C1c2cccc(NS(=O)(=O)c3ccc(C(F)(F)F)cc3)c2C(=O)N1Cc1cccnc1 [Compound 19] | 758 nM
2 | CC(C)c1ccc(S(=O)(=O)Nc2ccc(Cl)c3c2C(=O)N(c2cccc(C#N)c2)C3=O)cc1 [Compound 125] | 243 nM
3 | CCOc1nc(C)ccc1CN1C(=O)c2c(Cl)ccc(NS(=O)(=O)c3ccc(C(C)(C)C)cc3)c2C1=O [Compound 246] | 125 nM
4 | Cc1ccc(NS(=O)(=O)c2ccc(OC(F)(F)F)cc2)c2c1C(=O)N(Cc1cccnc1)C2=O [Compound 162] | 1000 nM
5 | COc1nc(C)ccc1CN1C(=O)c2c(Cl)ccc(NS(=O)(=O)c3ccc(C(C)(C)C)cc3)c2C1=O [Compound 253] | 41 nM
6 | CC(C)(C)c1ccc(S(=O)(=O)Nc2ccc(Cl)c3c2C(=O)N(c2nccs2)C3=O)cc1 [Compound 146] | 154 nM
7 | COc1cncc(N2C(=O)c3c(Cl)ccc(NS(=O)(=O)c4ccc(Cl)c(C(F)(F)F)c4)c3C2=O)c1 [Compound 93] | 217 nM
8 | Cc1ccc(CN2C(=O)c3c(Cl)ccc(NS(=O)(=O)c4ccc(C(C)(C)C)cc4)c3C2=O)c(C)n1 [Compound 248] | 70 nM
9 | COc1ccc(N2C(=O)c3c(Cl)ccc(NS(=O)(=O)c4ccc(C(C)(C)C)cc4)c3C2=O)c[n+]1[O-] [Compound 180] | 78 nM
10 | O=C1c2c(Cl)ccc(NS(=O)(=O)c3ccc(Cl)c(C(F)(F)F)c3)c2C(=O)N1c1cccnc1 [Compound 48] | 171 nM
11 | CC(C)c1ccc(S(=O)(=O)Nc2ccc(Cl)c3c2C(=O)N(Cc2cccnc2)C3=O)cc1 [Compound 80] | 173 nM
12 | CC(C)c1ccc(S(=O)(=O)Nc2ccc(Cl)c3c2C(=O)N(c2cccnc2)C3=O)cc1 [Compound 57] | 38 nM
13 | Cc1cc(C)nc(N2C(=O)c3c(Cl)ccc(NS(=O)(=O)c4ccc(C(C)(C)C)cc4)c3C2=O)n1 [Compound 240] | 84 nM
14 | N#Cc1cccc(N2C(=O)c3cccc(NS(=O)(=O)c4ccc(OC(F)(F)F)cc4)c3C2=O)c1 [Compound 40] | 1360 nM
15 | CC(C)(C)c1ccc(S(=O)(=O)Nc2ccc(Cl)c3c2C(=O)N(CCc2cccnc2)C3=O)cc1 [Compound 116, 4-(tert-butyl)-N-(7-chloro-1,3-dioxo-2-(2-(pyridin-3-yl)ethyl)isoindolin-4-yl)benzenesulfonamide] | 100 nM
16 | CC(C)(C#N)c1ccc(S(=O)(=O)Nc2ccc(Cl)c3c2C(=O)N(Cc2cccnc2)C3=O)cc1 [Compound 79] | 33 nM
17 | COc1cncc(N2C(=O)c3c(Cl)ccc(NS(=O)(=O)c4ccc(OC(F)(F)F)cc4)c3C2=O)c1 [Compound 94] | 244 nM
18 | O=C1c2cccc(NS(=O)(=O)c3ccc(F)c(C(F)(F)F)c3)c2C(=O)N1c1cccnc1 [Compound 8] | 1320 nM
19 | COc1ccc(N2C(=O)c3c(Cl)ccc(NS(=O)(=O)c4ccc(C(C)(C)C)cc4)c3C2=O)[n+]([O-])c1C [Compound 265] | 41 nM

Row | Structure (SMILES) | Ki
20 | CC(C)(C#N)c1ccc(S(=O)(=O)Nc2ccc(Cl)c3c2C(=O)N(Cc2ccc[n+]([O-])c2)C3=O)cc1 [Compound 81] | 148 nM
21 | CC(C)(C)c1ccc(S(=O)(=O)Nc2ccc(Cl)c3c2C(=O)N(c2cncs2)C3=O)cc1 [Compound 178] | 164 nM
22 | Cn1cc(N2C(=O)c3c(Cl)ccc(NS(=O)(=O)c4ccc(C(C)(C)C)cc4)c3C2=O)c(C(=O)O)n1 [Compound 289] | 104 nM
23 | N#Cc1cccc(N2C(=O)c3cccc(NS(=O)(=O)c4ccc(Cl)c(C(F)(F)F)c4)c3C2=O)c1 [Compound 41] | 167 nM
24 | Cc1cncc(N2C(=O)c3c(Cl)ccc(NS(=O)(=O)c4ccc(C(C)C)cc4)c3C2=O)c1 [Compound 105] | 311 nM
25 | CC(C)(C)c1ccc(S(=O)(=O)Nc2ccc(C#N)c3c2C(=O)N(C2CCOCC2)C3=O)cc1 [Compound 277] | 28 nM
26 | CC(C)c1ccc(S(=O)(=O)Nc2ccc(Cl)c3c2C(=O)N(c2cn[nH]c2)C3=O)cc1 [Compound 151] | 42 nM
27 | Cn1cc(N2C(=O)c3c(Cl)ccc(NS(=O)(=O)c4ccc(C(F)(F)F)cc4)c3C2=O)cn1 [Compound 143] | 64 nM
28 | N#Cc1cccc(CN2C(=O)c3c(Cl)ccc(NS(=O)(=O)c4ccc(Cl)c(C(F)(F)F)c4)c3C2=O)c1 [Compound 132] | 252 nM
29 | CC(C)(C)c1ccc(S(=O)(=O)Nc2ccc(C#N)c3c2C(=O)N(Cc2cccc(C#N)c2)C3=O)cc1 [Compound 127, 4-(tert-butyl)-N-(7-cyano-2-(3-cyanobenzyl)-1,3-dioxoisoindolin-4-yl)benzenesulfonamide] | 153 nM
30 | CC(C)(C)c1cccc(S(=O)(=O)Nc2cccc3c2C(=O)N(Cc2cccnc2)C3=O)c1 [Compound 14] | 1550 nM
31 | O=C1c2c(Cl)ccc(NS(=O)(=O)c3ccc(OC(F)F)cc3)c2C(=O)N1c1cn[nH]c1 [Compound 152] | 245 nM
32 | CC(C)(C)c1ccc(S(=O)(=O)Nc2ccc(Cl)c3c2C(=O)N(c2cncc(C#N)c2)C3=O)cc1 [Compound 177] | 73 nM
33 | CC(C)(C)c1ccc(S(=O)(=O)Nc2ccc(Cl)c3c2C(=O)N(c2ccc(F)nc2)C3=O)cc1 [Compound 187] | 33 nM
34 | CC(C)(C)c1ccc(S(=O)(=O)Nc2ccc(Cl)c3c2C(=O)N(CCc2ccc[n+]([O-])c2)C3=O)cc1 [Compound 117, 3-(2-(4-(4-(tert-butyl)phenylsulfonamido)-7-chloro-1,3-dioxoisoindolin-2-yl)ethyl)pyridine 1-oxide] | 184 nM
35 | CC(C)(C)c1ccc(S(=O)(=O)Nc2cccc3c2C(=O)N(c2ccc(C#N)cc2)C3=O)cc1 [Compound 36] | 1210 nM
36 | Cc1ccc(CN2C(=O)c3c(Cl)ccc(NS(=O)(=O)c4ccc(C(C)(C)C)cc4)c3C2=O)cn1 [Compound 215] | 85 nM
37 | COc1cnc(N2C(=O)c3c(Cl)ccc(NS(=O)(=O)c4ccc(C(C)(C)C)cc4)c3C2=O)cc1C [Compound 268] | 54 nM
38 | COc1ccc(N2C(=O)c3c(Cl)ccc(NS(=O)(=O)c4ccc(C(C)(C)C)cc4)c3C2=O)cn1 [Compound 118, 4-(tert-butyl)-N-(7-chloro-2-(6-methoxypyridin-3-yl)-1,3-dioxoisoindolin-4-yl)benzenesulfonamide] | 78 nM

Row | Structure (SMILES) | Ki
39 | COc1cc(N2C(=O)c3c(Cl)ccc(NS(=O)(=O)c4ccc(C(C)(C)C)cc4)c3C2=O)c[n+]([O-])c1 [Compound 91, 3-(4-(4-(tert-butyl)phenylsulfonamido)-7-chloro-1,3-dioxoisoindolin-2-yl)-5-methoxypyridine 1-oxide] | 50 nM
40 | Cn1cc(N2C(=O)c3c(Cl)ccc(NS(=O)(=O)c4ccc(C(C)(C)C)cc4)c3C2=O)cn1 [Compound 142] | 41 nM
41 | O=C1c2cccc(NS(=O)(=O)c3ccc(OC(F)(F)F)cc3)c2C(=O)N1c1cccnc1 [Compound 5] | 123 nM
42 | Cc1ccc(NS(=O)(=O)c2ccc(C(F)(F)F)cc2)c2c1C(=O)N(Cc1cccnc1)C2=O [Compound 161] | 568 nM
43 | N#Cc1cccc(N2C(=O)c3c(Cl)ccc(NS(=O)(=O)c4ccc(OC(F)F)cc4)c3C2=O)c1 [Compound 124] | 224 nM
44 | COc1cc(CN2C(=O)c3c(Cl)ccc(NS(=O)(=O)c4ccc(C(C)(C)C)cc4)c3C2=O)ccn1 [Compound 273] | 108 nM
45 | Cn1cnc(N2C(=O)c3c(Cl)ccc(NS(=O)(=O)c4ccc(C(F)(F)F)cc4)c3C2=O)c1 [Compound 154] | 32 nM
46 | O=C1c2c(Cl)ccc(NS(=O)(=O)c3ccc(OC(F)F)cc3)c2C(=O)N1c1cccnc1 [Compound 52] | 187 nM
47 | Cc1ccc(NS(=O)(=O)c2ccc(C(C)(C)C)cc2)c2c1C(=O)N(c1cccnc1)C2=O [Compound 157, 4-(tert-butyl)-N-(7-methyl-1,3-dioxo-2-(pyridin-3-yl)isoindolin-4-yl)benzenesulfonamide] | 189 nM
48 | Cc1ccc(N2C(=O)c3c(Cl)ccc(NS(=O)(=O)c4ccc(C(C)(C)C)cc4)c3C2=O)c[n+]1[O-] [Compound 205] | 46 nM
49 | O=C1c2cccc(NS(=O)(=O)c3ccc(Cl)c(C(F)(F)F)c3)c2C(=O)N1c1cccnc1 [Compound 7] | 206 nM
50 | O=C1c2c(Cl)ccc(NS(=O)(=O)c3ccc(C(F)(F)F)cc3)c2C(=O)N1c1cncnc1 [Compound 140] | 216 nM
51 | CC(C)(C)c1ccc(S(=O)(=O)Nc2ccc(C#N)c3c2C(=O)N(Cc2ccc[n+]([O-])c2)C3=O)cc1 [Compound 280] | 37 nM
52 | CC(C)(C)c1ccc(S(=O)(=O)Nc2ccc(Cl)c3c2C(=O)N(C(C)(C)c2cccnc2)C3=O)cc1 [Compound 107, 4-(tert-butyl)-N-(7-chloro-1,3-dioxo-2-(2-(pyridin-3-yl)propan-2-yl)isoindolin-4-yl)benzenesulfonamide] | 318 nM
53 | COc1cncc(N2C(=O)c3c(Cl)ccc(NS(=O)(=O)c4ccc(C(F)(F)F)cc4)c3C2=O)c1 [Compound 92] | 255 nM
54 | CCOc1cccc(N2C(=O)c3c(Cl)ccc(NS(=O)(=O)c4ccc(C(C)(C)C)cc4)c3C2=O)[n+]1[O-] [Compound 210] | 44 nM
55 | N#Cc1cccc(N2C(=O)c3c(Cl)ccc(NS(=O)(=O)c4ccc(OC(F)(F)F)cc4)c3C2=O)c1 [Compound 122] | 175 nM
56 | O=C1c2cccc(NS(=O)(=O)c3cccc(C(F)(F)F)c3)c2C(=O)N1c1cccnc1 [Compound 4] | 2710 nM
57 | N#Cc1cccc(N2C(=O)c3cccc(NS(=O)(=O)c4ccc(C(F)(F)F)cc4)c3C2=O)c1 [Compound 39] | 611 nM
